This note sets out measurements from US20240327364A1, “THERAPEUTIC TARGETING OF GPR68 TO INDUCE FERROPTOSIS” (University Of Maryland, Baltimore, priority 2023, published 2024).

Like-named read-outs stand apart in the source and are kept apart here.

One assay has as its target T1, M3 (Homo sapiens, UniProt P20309).
T1 construct: host or cells: Chem-1 cells with promiscuous Gα15
In words: GPCR Profiler. In kind it is cell-based.

The target of a further assay is T2, GPR68/OGR1 (Homo sapiens, UniProt Q15743).
T2 construct: host or cells: Chem-1 (CHEM1-OGR1) cells
The assay is described as follows: CHEM1-OGR1 cells Fluo-8 calcium assay, acidified media pH 6.4. The class given is cell-based. As for the experimental part: Briefly, the methods were: On the day before the assay 20,000 cells per well of CHEM1-OGR1 cells were plated in 10% DMEM containing 10% FBS and 1% Pen/Strep into a 96 well plate. After 24 hours media was removed and cells were stained with 80 μL Fluo-8 calcium indicator dye according to manufacturer's protocol. After staining cells were treated with 20 uL of 4× concentration of test compounds. Using kinetic imaging in the Lionheart HCS fluorescence intensity was continuously measure at 10 frames per second, for 5 seconds before 100 μL of acidified media was added to the well resulting in a pH of 6.4. A ratio of fluorescence intensities prior to addition and at peak were calculated and averaged. The resulting data were platted and using a 4 parameter logistic regression EC50 (the concentration causing 50% effective inhibition) for each test compound was determined.

The next assay deals with GPR68 (Homo sapiens, UniProt Q15743). The assay is described as follows: Chem1-OGR1 cells washout (reversibility). The class given is cell-based. Also on record: host or cells: Chem-1 cells (Chem1-OGR1). As to conditions: for reversibility of GPR68 inhibition: washout. As for the experimental part:
Chem1-GPR68 reporter cells were treated with 20 uM OM8345 for 2 hours and then rinsed with HBSS. […] The GPR68 inhibitory activity of OGM analogs segregated with the ability of the molecule to induce the phenotype in zebrafish.
Additional experiments, whereby OGM2 was resynthesized and used (due to its submicromolar potency and GPR68 specificity) were performed. See FIG. 6A (HNMR of resynthesis of OGM2) and FIG. 6B (LCMS of resynthesis of OGM2). To test the possibility of OGM2 being an irreversible inhibitor, Chem1-OGR1 cells (Millipore™) were incubated with 10 μM OGM2 for 4 hours, and after removing the compound stimulated with pH 6.4 medium. […] Time till 50% max ˜52 minutes. The signal returned back towards baseline uninhibited levels in a rapid and time-dependent manner.

The target of the next assay is T3, CDK5 (Homo sapiens, UniProt Q00535).
T3 construct: purchased DiscoveRx (KinomeScan service)
In words: KinomeScan. In kind it is binding. As to conditions: read-out: % Control.

A further assay has as its target T4, PKN2 (Homo sapiens, UniProt Q16513).
T4 construct: purchased DiscoveRx (Fremont, CA)
In words: KinomeScan. The class given is binding. Conditions: read-out: % Control.

For assay [1], the system named is human pulmonary artery endothelial cells (HPAECs). In words: Cyclic stretch-triggered endothelial cell activation. The class given is cell-based. Conditions: for Rho activation by 18% cyclic stretch: OGM2 at 5 μM, OGM1 at 3 μM, Rho-GTP pulldown. How it is done: FIG. 33A through FIG. 33D: Cyclic stretch-triggered endothelial cell (EC) activation is abolished by OGM2 and OGM1. FIG. 33A: In human pulmonary artery endothelial cells (HPAECs), pretreatment with OGMs (OGM2 at 5 μM and OGM1 at 3 μM) abolished Rho activation by 18% cyclic stretch (18% CS), as determined by Rho-GTP pulldown assay. ST, static condition. FIG. 33B: Treatment with OGM2 or OGM1 blocked CS-triggered activation of myosin phosphatase target (MYPT) and myosin light chain (MLC) in ECs, as determined by their phosphorylation MYPT and MLC. FIG. 33C: OGM2 or OGM1 blocked CS-induced TNF-α mRNA expression in ECs. n=3, ^#P<0.05 versus ST, *P<0.05 versus 18% CS. Error bars, standard deviation. FIG. 33D: OGM2 and OGM1 blocked CS-induced VCAM-1 expression in ECs. Here, OGM=OGM2.

Another assay has as its target T5, MYO3A (Homo sapiens, UniProt Q8NEV4).
T5 construct: purchased DiscoveRx
The assay is described as follows: KinomeScan. In kind it is binding. Conditions: read-out: % Control.

A further assay deals with T6, ERK4 (Homo sapiens, UniProt P31152).
T6 construct: purchased DiscoveRx (Fremont, CA)
In words: KinomeScan. The class given is binding. Conditions: read-out: % Control.

In a further assay the target is T7, ULK3 (Homo sapiens, UniProt Q6PHR2).
T7 construct: purchased DiscoveRx
The assay is described as follows: KinomeScan. The class given is binding. As to conditions: read-out: % Control.

The test system of another assay is NCI-H460. In words: Cell Titer-Glo viability, Lung cancer, Large cell. In kind it is cell-based. As for the experimental part:
OGM2 kills wide variety of cancer cell types. Cell sensitivity can be classified in to Very Sensitive (LC50<2 μM), Sensitive (LC50=2 to 10 μM), Mildly Sensitive (LC50>10 μM), and Refractory (no killing at 10 μM). The listed established cell were incubated with OGM2 at 2 μM or 10 μM for 72 hours under standard cell culture conditions, and relative cell number was assessed using Cell Titer-Glo Luminescent Cell Viability Assay (Promega™) following the manufacturer's instructions. Luminescence was determined using a Cytation 5 reader and Gen5 software package (BioTek™).
Cancer cells, which are very sensitive to killing by OGM2 (LCs <2 μM), with reported mRNA expression of GPR68 and the related proton sensing receptor GPR4. LC50's (concentrations causing 50% lethality) were determined using CellTiter-Glo (Promega™, G7570). Cells were plated in 12-well plates (CELLTREAT Scientific Products, 229112) in 1 ml of DMEM with high glucose, GlutaMAX, HEPES, or RPMI 1640 with Penicillin-Streptomycin (ThermoFisher™, 10564029, 11875119 and 15140122) and 10% FBS. Cells were incubated overnight at 37° C. in 5% CO2. Then 1 mL of fresh media was added with DMSO, OGM, or positive control (Erastin; APExBIO Technology, LLC, B1524) and cells incubated for 3 days. On the third day, all media was removed, cells were rinsed with 1×PBS, PBS was removed, and 200 μL of 1× Passive Lysis Buffer (Promega™, E1941) was added to each well. […]. Subsequently, 20 μL of lysate was added to 100 μL CellTiter-Glo™ reagent on a LUMITRAC 200 plate (Greiner™ bio-one, 82050-726). Plates were briefly spun down and read on a GloMax-Multi Detection System (Promega™).
The cells listed in the tables above were incubated with OGM2 at 2 μM or 10 μM for 72 hours under standard cell culture conditions, and relative cell number was assessed using Cell Titer-Glo Luminescent Cell Viability Assay (Promega™) following the manufacturer's instructions. Luminescence was determined using a Cytation 5 reader and Gen5 software package (BioTek™). RNA expression of GPR68 and GPR4 in the corresponding cancer cell lines are listed, according to the publicly available The Human Protein Atlas version 22.0 and Ensembl version 103.38 (see proteinatlas.org). The consensus normalized expression value (“nTPM”=normalize transcript per million) was calculated as the maximum nTPM value for each gene in the two data sources.

The mark [2] stands for this setting: concentration causing 50% effective inhibition of calcium response to pH 6.4, read-out: EC50.

Chain of GPR68 (Q15743 whole entry): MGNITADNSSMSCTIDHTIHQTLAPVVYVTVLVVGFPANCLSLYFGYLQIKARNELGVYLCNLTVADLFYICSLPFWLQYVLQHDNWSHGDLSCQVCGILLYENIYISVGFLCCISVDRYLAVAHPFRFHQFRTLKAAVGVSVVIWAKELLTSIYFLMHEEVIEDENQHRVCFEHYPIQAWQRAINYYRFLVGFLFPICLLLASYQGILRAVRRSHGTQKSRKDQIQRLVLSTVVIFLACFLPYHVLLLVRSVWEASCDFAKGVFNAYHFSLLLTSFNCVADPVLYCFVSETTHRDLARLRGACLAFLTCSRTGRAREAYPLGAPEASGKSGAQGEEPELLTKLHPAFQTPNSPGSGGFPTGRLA
T2 sequence (Q15743 whole entry): as above
T1 sequence (P20309 whole entry): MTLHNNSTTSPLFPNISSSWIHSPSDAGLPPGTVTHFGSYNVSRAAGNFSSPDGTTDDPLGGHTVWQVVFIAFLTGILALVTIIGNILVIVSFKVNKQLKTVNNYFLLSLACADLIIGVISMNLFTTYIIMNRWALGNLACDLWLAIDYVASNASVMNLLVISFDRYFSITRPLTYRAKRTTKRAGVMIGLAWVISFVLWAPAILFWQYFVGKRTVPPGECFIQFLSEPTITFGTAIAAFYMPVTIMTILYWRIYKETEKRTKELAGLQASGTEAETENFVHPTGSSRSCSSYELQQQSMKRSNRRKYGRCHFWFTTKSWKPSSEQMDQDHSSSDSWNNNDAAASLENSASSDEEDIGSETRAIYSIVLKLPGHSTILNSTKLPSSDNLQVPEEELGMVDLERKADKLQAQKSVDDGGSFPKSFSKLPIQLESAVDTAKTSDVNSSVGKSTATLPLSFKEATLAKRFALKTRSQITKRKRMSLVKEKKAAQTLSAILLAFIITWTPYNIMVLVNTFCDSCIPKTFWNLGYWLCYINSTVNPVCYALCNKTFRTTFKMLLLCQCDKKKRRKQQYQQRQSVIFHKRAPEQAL
T7 sequence (Q6PHR2 whole entry): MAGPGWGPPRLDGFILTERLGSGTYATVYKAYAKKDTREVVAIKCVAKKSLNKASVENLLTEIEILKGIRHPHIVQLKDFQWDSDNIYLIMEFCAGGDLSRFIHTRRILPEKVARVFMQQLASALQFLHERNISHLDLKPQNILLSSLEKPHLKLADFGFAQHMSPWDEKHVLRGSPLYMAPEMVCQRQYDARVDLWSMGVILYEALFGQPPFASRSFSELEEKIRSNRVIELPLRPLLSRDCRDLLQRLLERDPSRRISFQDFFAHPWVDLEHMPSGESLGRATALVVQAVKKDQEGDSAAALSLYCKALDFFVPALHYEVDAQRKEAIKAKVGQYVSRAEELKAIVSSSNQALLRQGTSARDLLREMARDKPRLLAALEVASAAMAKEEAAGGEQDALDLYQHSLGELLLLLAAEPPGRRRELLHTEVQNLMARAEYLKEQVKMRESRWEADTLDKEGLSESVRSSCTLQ
T5 sequence (Q8NEV4 whole entry): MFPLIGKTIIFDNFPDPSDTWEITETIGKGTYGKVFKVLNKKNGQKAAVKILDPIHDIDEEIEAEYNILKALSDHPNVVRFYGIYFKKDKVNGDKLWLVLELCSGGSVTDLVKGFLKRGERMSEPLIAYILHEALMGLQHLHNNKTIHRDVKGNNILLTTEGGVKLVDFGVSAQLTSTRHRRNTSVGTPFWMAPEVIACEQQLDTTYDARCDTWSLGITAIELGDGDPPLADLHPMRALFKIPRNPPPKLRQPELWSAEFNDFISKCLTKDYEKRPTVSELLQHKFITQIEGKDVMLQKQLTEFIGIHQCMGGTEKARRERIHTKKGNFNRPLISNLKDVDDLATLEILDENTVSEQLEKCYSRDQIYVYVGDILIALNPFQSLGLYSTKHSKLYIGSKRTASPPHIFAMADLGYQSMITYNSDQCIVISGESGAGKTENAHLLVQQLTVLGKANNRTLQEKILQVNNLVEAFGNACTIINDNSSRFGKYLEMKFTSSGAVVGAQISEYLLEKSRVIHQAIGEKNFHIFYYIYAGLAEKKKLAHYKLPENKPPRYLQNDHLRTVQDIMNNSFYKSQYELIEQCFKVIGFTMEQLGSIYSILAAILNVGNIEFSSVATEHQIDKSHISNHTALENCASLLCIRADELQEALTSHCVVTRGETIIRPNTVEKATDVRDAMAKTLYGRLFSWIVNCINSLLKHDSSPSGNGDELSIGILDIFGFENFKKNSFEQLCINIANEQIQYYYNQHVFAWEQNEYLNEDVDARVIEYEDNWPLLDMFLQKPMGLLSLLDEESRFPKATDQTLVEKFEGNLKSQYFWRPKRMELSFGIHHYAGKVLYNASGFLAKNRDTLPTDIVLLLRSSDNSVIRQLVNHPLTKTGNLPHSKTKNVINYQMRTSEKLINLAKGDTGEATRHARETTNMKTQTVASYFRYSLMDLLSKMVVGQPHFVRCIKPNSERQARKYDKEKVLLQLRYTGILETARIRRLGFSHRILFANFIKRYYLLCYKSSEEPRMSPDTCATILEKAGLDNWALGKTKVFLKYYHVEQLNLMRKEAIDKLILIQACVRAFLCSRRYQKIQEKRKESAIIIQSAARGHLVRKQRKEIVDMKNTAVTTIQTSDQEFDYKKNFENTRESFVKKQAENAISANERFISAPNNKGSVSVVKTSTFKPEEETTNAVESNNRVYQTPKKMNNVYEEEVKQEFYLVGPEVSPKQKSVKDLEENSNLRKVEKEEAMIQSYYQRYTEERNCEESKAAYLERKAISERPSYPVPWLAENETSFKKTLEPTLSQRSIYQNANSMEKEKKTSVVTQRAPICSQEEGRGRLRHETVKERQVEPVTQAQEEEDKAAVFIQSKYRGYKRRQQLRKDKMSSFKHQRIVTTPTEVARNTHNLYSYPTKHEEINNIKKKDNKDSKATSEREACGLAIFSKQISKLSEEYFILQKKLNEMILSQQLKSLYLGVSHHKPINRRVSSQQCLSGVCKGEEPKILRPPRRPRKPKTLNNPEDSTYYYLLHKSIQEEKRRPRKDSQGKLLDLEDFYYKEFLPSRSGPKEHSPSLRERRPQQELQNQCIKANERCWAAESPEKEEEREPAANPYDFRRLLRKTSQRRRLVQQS
T4 sequence (Q16513 whole entry): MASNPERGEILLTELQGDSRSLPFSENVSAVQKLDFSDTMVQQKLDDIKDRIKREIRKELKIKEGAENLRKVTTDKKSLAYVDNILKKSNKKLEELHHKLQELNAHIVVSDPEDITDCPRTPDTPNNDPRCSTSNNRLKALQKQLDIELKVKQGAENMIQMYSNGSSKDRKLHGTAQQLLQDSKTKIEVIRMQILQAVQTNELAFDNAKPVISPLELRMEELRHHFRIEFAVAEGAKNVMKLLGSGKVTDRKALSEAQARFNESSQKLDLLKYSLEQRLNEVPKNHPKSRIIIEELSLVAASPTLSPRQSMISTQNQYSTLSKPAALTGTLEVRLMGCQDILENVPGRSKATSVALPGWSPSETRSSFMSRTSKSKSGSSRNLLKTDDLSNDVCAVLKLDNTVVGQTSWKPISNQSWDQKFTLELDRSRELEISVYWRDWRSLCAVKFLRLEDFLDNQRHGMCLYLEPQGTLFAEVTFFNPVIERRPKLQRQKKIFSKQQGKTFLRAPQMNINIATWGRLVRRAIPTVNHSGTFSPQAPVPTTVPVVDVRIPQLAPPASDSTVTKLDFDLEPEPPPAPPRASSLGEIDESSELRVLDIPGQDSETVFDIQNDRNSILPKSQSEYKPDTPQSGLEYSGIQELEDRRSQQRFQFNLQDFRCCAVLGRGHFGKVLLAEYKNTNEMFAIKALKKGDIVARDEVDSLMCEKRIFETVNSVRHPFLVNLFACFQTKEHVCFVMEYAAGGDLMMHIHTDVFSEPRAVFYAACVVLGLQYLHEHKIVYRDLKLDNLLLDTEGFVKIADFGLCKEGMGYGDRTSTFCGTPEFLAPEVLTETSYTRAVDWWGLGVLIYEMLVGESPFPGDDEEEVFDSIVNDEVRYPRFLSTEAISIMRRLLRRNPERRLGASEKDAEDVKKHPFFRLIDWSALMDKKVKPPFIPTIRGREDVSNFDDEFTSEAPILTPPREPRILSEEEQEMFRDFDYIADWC
T3 sequence (Q00535 whole entry): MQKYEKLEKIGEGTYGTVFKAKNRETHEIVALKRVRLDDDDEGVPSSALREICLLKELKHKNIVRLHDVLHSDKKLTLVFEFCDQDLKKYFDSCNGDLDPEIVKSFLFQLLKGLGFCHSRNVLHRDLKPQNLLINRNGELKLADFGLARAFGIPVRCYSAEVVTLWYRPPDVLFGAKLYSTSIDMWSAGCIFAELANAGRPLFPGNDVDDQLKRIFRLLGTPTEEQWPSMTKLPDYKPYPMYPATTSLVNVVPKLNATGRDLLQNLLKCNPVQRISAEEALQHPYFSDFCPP
T6 sequence (P31152 whole entry): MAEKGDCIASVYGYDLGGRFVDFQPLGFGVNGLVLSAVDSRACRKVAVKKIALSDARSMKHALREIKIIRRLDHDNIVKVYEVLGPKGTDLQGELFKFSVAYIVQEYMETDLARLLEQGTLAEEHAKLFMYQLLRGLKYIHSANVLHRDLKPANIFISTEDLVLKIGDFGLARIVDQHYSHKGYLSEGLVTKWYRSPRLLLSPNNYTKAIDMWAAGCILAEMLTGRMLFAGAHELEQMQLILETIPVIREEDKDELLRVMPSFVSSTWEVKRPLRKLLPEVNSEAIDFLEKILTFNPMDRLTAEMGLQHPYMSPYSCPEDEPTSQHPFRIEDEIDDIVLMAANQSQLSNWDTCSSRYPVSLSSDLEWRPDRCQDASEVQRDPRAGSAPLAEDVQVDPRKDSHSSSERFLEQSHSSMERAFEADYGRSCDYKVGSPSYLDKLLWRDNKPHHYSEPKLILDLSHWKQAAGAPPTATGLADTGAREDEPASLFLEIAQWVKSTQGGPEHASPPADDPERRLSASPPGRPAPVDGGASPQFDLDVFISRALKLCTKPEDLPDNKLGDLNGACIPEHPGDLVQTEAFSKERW

Take `CCc1ccc2c(c1)C1(NN=C(c3cccc4ccccc34)S1)C(=O)N2` (stereo not shown) [OGM1, 5-ethyl-5′-naphthalen-1-ylspiro[1H-indole-3,2′-3H-1,3,4-thiadiazole]-2-one]: the Antagonism at M3 (10 uM) is −1.9. This compound also had an Agonism at M3 (12.5 uM) of 0.7. Besides, the EC50 on GPR68/OGR1 (Table 5, read-out: GPR68) was found to be 160 nM; at GPR68/OGR1 (setting [2]) it was 306 nM. Further, the “reversibility of GPR68 inhibition” value at GPR68 was “reversible inhibitor of GPR68”. Besides, the remaining binding at 10 µM at CDK5 stood at 100%; on PKN2, 100%; at MYO3A it was 95%; on ERK4, 93%; at ULK3 it was 100%. Further, in assay [1], the “CS-induced TNF-α mRNA expression” value is “blocked”. Also, the “CS-induced VCAM-1 expression” value in [1] is on record as “blocked”. The “Rho activation by 18% cyclic stretch” value in [1] is “abolished”.

For the compound `CCc1ccc2c(c1)C1(NN=C(c3ccccc3)S1)C(=O)N2` (stereo not shown) [OGM2], on GPR68/OGR1 (Table 5, read-out: GPR68), the EC50 is 710 nM. In addition, the EC50 on GPR68/OGR1 (setting [2]) was found to be 710 nM. Further, at GPR68 (recovery of GPR68 activity after washout, 10 μM OGM2 for 4 hours, pH 6.4 medium), the “Time till 50% max” value is roughly 52 min. Moreover, the “reversibility of GPR68 inhibition” value on GPR68 is “reversible and highly specific inhibitor of GPR68”. In addition, the “reversibility of GPR68 inhibition” value on GPR68 (listed as OM8345) was “reversible inhibition of GPR68”. In the assay on NCI-H460, the Class result was “Sensitive (Sensitive (LC50=2 to 10 μM))”. Also, in the assay on NCI-H460 (72 hours), the “% Survival 2 μM OGM” value worked out at 51.7% and the “% Survival 10 μM OGM” value came to 26.5%. Moreover, the CC50 with NCI-H460 (Homo sapiens, NCI-H460, 72 hours, read-out: LC50 (the source's name)) was 2000 to 10000 nM. Besides, in assay [1], the “CS-induced TNF-α mRNA expression” value was “blocked”, the “CS-induced VCAM-1 expression” value was “blocked” and the “Rho activation by 18% cyclic stretch” value is listed as “abolished”.
